These are literature values, as cited in patent publication US20250000794A1, “IMPROVED DRUG PROCESSING METHODS TO INCREASE DRUG LOADING” (BOARD OF REGENTS, THE UNIVERSITY OF TEXAS SYSTEM, priority 2021, published 2025).

The conditions of the data set: water.

In the case of `NCCCC[C@H](N)C(=O)O` [L-lysine], the “Solubility (g/100 mL) Room Temperature” value is recorded as 150 g/100 mL.
